According to the supplement of paper PMC11061612:

Assays:
Assay in all cases: combination Emax (second highest fraction inhibited in the dose matrix, 72 h); higher = more inhibition; extreme values may be limits of the assay
[1] = tested on: NCI-H810 (Non-Small Cell Lung Carcinoma)
Summary of the method: (§1)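 Cell lines grown in DMEM/F12 or RPMI with 10% FBS were plated in 1536-well plates and held 24 hours at 37°C, 5% CO2 before 72 hours of exposure to two-drug dose matrices, with DMSO typically at 0.2%. CellTiter-Glo 2.0 luminescence gave viability, which was converted to inhibition. Vehicle wells were set to 0 and blank wells to 1. Combination Emax is the second-highest inhibition in the matrix, and Bliss excess is the observed combination effect minus the expected EA + EB − EA·EB, where EA and EB are the single-agent effects.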

[2] = tested on: RMG-I (Ovarian Carcinoma)
Summary of the method: as §1

[3] = tested on: JHH-1 (Hepatocellular Carcinoma)
Summary of the method: as §1

[4] = tested on: NCI-H1155 (Non-Small Cell Lung Carcinoma)
Summary of the method: as §1

[5] = tested on: KYSE-70 (Esophageal Squamous Cell Carcinoma)
Summary of the method: as §1

[6] = tested on: Calu-6 (Non-Small Cell Lung Carcinoma)
Summary of the method: as §1

[7] = tested on: LAMA-84 (Chronic Myelogenous Leukemia)
Summary of the method: as §1

[8] = tested on: SK-MM-2 (Plasma Cell Myeloma)
Summary of the method: as §1

[9] = tested on: AN3-CA (Endometrial Carcinoma)
Summary of the method: as §1

[10] = tested on: OV-90 (Ovarian Carcinoma)
Summary of the method: as §1

[11] = tested on: RT4 (Bladder Carcinoma)
Summary of the method: as §1

[12] = tested on: SJRH30 (Rhabdomyosarcoma)
Summary of the method: as §1

[13] = tested on: ES-2 (Ovarian Carcinoma)
Summary of the method: as §1

[14] = tested on: CML-T1 (Chronic Myelogenous Leukemia)
Summary of the method: as §1

[15] = tested on: HuO-3N1 (Osteosarcoma)
Summary of the method: as §1

[16] = tested on: Becker (Low Grade Glioma)
Summary of the method: as §1

[17] = tested on: HSC-3 (Oral Cavity Carcinoma)
Summary of the method: as §1

[18] = tested on: KYM-1 (Rhabdomyosarcoma)
Summary of the method: as §1

[19] = tested on: NCI-H196 (Small Cell Lung Carcinoma)
Summary of the method: as §1

[20] = tested on: PC-14 (Lung Adenocarcinoma)
Summary of the method: as §1

SMILES | combination Emax [1] | combination Emax [2] | combination Emax [3] | combination Emax [4] | combination Emax [5] | combination Emax [6] | combination Emax [7] | combination Emax [8] | combination Emax [9] | combination Emax [10] | combination Emax [11] | combination Emax [12] | combination Emax [13] | combination Emax [14] | combination Emax [15] | combination Emax [16] | combination Emax [17] | combination Emax [18] | combination Emax [19] | combination Emax [20]
CCN(CCO)CCCOc1ccc2c(Nc3cc(CC(=O)Nc4cccc(F)c4)[nH]n3)ncnc2c1 [AZD2811] + C[C@@H]1COCCN1C2=NC(=NC(=C2)C3(CC3)[S@](=N)(=O)C)C4=C5C=CNC5=NC=C4 [AZD6738] (first compound max 1 µM, 7x7, partner max 10 µM) | 0.738 | 0.497 | 0.504 | 0.787 | 0.313 | 0.767 | 0.97 | 0.533 | 0.48 | 0.429 | 0.429 | 0.839 | 0.728 | 0.934 | 0.339 | 0.586 | 0.454 | 0.762 | 0.276 | 0.83
CCN(CCO)CCCOc1ccc2c(Nc3cc(CC(=O)Nc4cccc(F)c4)[nH]n3)ncnc2c1 [AZD2811] + O=C(c1cc(Cc2n[nH]c(=O)c3ccccc23)ccc1F)N1CCN(C(=O)C2CC2)CC1 [Olaparib] (first compound max 1 µM, 7x7, partner max 10 µM) | 0.646 | 0.231 | 0.161 | 0.443 | 0.203 | 0.239 | 0.488 | 0.232 | 0.282 | 0.249 | 0.377 | 0.255 | 0.192 | 0.829 | 0.178 | 0.12 | 0.351 | 0.402 | 0.12 | 0.303
CN(CCO)CC[C@H](CSc1ccccc1)Nc1ccc(S(=O)(=O)NC(=O)c2ccc(N3CCC([C@@H](O)c4ccccc4-c4ccc(Cl)cc4)CC3)cc2)cc1S(=O)(=O)C(F)(F)F [AZD4320] + C1CN(CCC1(C(=O)N[C@@H](CCO)C2=CC=C(C=C2)Cl)N)C3=NC=NC4=C3C=CN4 [Capivasertib] (first compound max 1 µM, 7x7, partner max 3 µM) | 0.482 | 0.708 | 0.355 | 0.904 | 0.167 | 0.448 | 0.696 | 1 | 0.625 | 0.717 | 0.144 | 0.427 | 0.131 | 0.977 | 0.201 | 0.298 | 0.53 | 0.0568 | 0.175 | 0.255
CN(CCO)CC[C@H](CSc1ccccc1)Nc1ccc(S(=O)(=O)NC(=O)c2ccc(N3CCC([C@@H](O)c4ccccc4-c4ccc(Cl)cc4)CC3)cc2)cc1S(=O)(=O)C(F)(F)F [AZD4320] + C=CCn1c(=O)c2cnc(Nc3ccc(N4CCN(C)CC4)cc3)nc2n1-c1cccc(C(C)(C)O)n1 [AZD1775] (first compound max 1 µM, partner max 1 µM) | 0.954 | 0.907 | 0.918 | 0.908 | 0.67 | 0.928 | 1 | 1 | 0.468 | 0.933 | 0.629 | 0.93 | 0.722 | 1 | 0.349 | 0.261 | 0.707 | 0.617 | 0.671 | 0.99
CN(CCO)CC[C@H](CSc1ccccc1)Nc1ccc(S(=O)(=O)NC(=O)c2ccc(N3CCC([C@@H](O)c4ccccc4-c4ccc(Cl)cc4)CC3)cc2)cc1S(=O)(=O)C(F)(F)F [AZD4320] + CCN(CCO)CCCOc1ccc2c(Nc3cc(CC(=O)Nc4cccc(F)c4)[nH]n3)ncnc2c1 [AZD2811] (first compound max 1 µM, 7x7, partner max 1 µM) | 0.894 | 0.728 | 0.82 | 0.918 | 0.391 | 0.801 | 0.906 | 1 | 0.474 | 0.743 | 1 | 0.503 | 0.168 | 0.994 | 0.152 | 0.224 | 0.664 | 0.125 | 0.055 | 0.395
CN(CCO)CC[C@H](CSc1ccccc1)Nc1ccc(S(=O)(=O)NC(=O)c2ccc(N3CCC([C@@H](O)c4ccccc4-c4ccc(Cl)cc4)CC3)cc2)cc1S(=O)(=O)C(F)(F)F [AZD4320] + CN(C)CCCOc1ccc(-c2ccc3ncc4c(c3c2)n(C2CCOCC2)c(=O)n4C)cn1 [AZD0156] (first compound max 1 µM, 7x7, partner max 1 µM) | 0.453 | 0.79 | 0.444 | 0.717 | 0.115 | 0.395 | 0.667 | 1 | 0.27 | 0.5 | 0.266 | 0.147 | 0.15 | 0.987 | 0.164 | 0.0869 | 0.145 | 0.14 | 0.171 | 0.17
CN(CCO)CC[C@H](CSc1ccccc1)Nc1ccc(S(=O)(=O)NC(=O)c2ccc(N3CCC([C@@H](O)c4ccccc4-c4ccc(Cl)cc4)CC3)cc2)cc1S(=O)(=O)C(F)(F)F [AZD4320] + C[C@@H]1COCCN1C2=NC(=NC(=C2)C3(CC3)[S@](=N)(=O)C)C4=C5C=CNC5=NC=C4 [AZD6738] (first compound max 1 µM, 7x7, partner max 10 µM) | 0.86 | 0.882 | 0.838 | 0.985 | 0.493 | 0.891 | 0.989 | 1 | 0.637 | 0.917 | 0.791 | 0.927 | 0.94 | 1 | 0.479 | 0.846 | 0.691 | 0.95 | 0.397 | 0.93
CN(CCO)CC[C@H](CSc1ccccc1)Nc1ccc(S(=O)(=O)NC(=O)c2ccc(N3CCC([C@@H](O)c4ccccc4-c4ccc(Cl)cc4)CC3)cc2)cc1S(=O)(=O)C(F)(F)F [AZD4320] + C[C@@H](Nc1cc(F)cc(F)c1)c1cc(C(=O)N(C)C)cc2c(=O)cc(N3CCOCC3)oc12 [AZD8186] (first compound max 1 µM, 7x7, partner max 3 µM) | 0.592 | 0.868 | 0.747 | 0.97 | 0.211 | 0.592 | 0.728 | 1 | 0.624 | 0.795 | 0.583 | 0.457 | 0.334 | 1 | 0.441 | 0.431 | 0.711 | 0.197 | 0.517 | 0.297
CN(CCO)CC[C@H](CSc1ccccc1)Nc1ccc(S(=O)(=O)NC(=O)c2ccc(N3CCC([C@@H](O)c4ccccc4-c4ccc(Cl)cc4)CC3)cc2)cc1S(=O)(=O)C(F)(F)F [AZD4320] + Cc1cc2ncnn2cc1Nc1ncc2c(n1)n(C1CCOCC1)c(=O)n2C [AZD7648] (first compound max 1 µM, 7x7, partner max 10 µM) | 0.43 | 0.826 | 0.382 | 0.772 | 0.132 | 0.59 | 0.752 | 1 | 0.445 | 0.6 | 0.355 | 0.147 | 0.501 | 0.99 | 0.139 | 0.124 | 0.151 | 0.0895 | 0.128 | 0.203
CN(CCO)CC[C@H](CSc1ccccc1)Nc1ccc(S(=O)(=O)NC(=O)c2ccc(N3CCC([C@@H](O)c4ccccc4-c4ccc(Cl)cc4)CC3)cc2)cc1S(=O)(=O)C(F)(F)F [AZD4320] + Cn1cnc2c(F)c(Nc3ccc(Br)cc3Cl)c(C(=O)NOCCO)cc21 [Selumetinib] (first compound max 1 µM, 7x7, partner max 3 µM) | 0.615 | 0.912 | 0.8 | 0.95 | 0.229 | 0.837 | 0.99 | 1 | 0.693 | 0.981 | 0.601 | 0.487 | 0.466 | 0.996 | 0.221 | 0.259 | 0.701 | 0.203 | 0.275 | 0.333
COc1nnc2ccc(N3CCC(c4ccc(OCCN5CCN(C)C(=O)[C@H]5C)cc4)CC3)nn12 [AZD5153] + C=CCn1c(=O)c2cnc(Nc3ccc(N4CCN(C)CC4)cc3)nc2n1-c1cccc(C(C)(C)O)n1 [AZD1775] (first compound max 1 µM, partner max 1 µM) | 0.8 | 0.592 | 0.584 | 0.814 | 0.47 | 0.854 | 0.978 | 0.878 | 0.435 | 0.378 | 0.571 | 0.942 | 0.747 | 0.945 | 0.466 | 0.384 | 0.795 | 0.901 | 0.473 | 0.883
